From ChEMBL document CHEMBL4118235, “The recent progress of isoxazole in medicinal chemistry” (Bioorg Med Chem, 2018) come the findings set out here.

The subject of experiment [1] is Escherichia coli. Kind of experiment: Antibacterial activity against Escherichia coli ATCC 8739 after 24 hrs by agar well diffusion method. Type of experiment: functional. The settings on record: ATCC 8739, 24 h. In general terms: A growth-free zone around the sample is the usual read-out of agar diffusion tests.
Experiment [2] has as its system Staphylococcus aureus. Kind of experiment: Antibacterial activity against Staphylococcus aureus ATCC 6538P after 24 hrs by agar well diffusion method. Format: functional.
For experiment [3], the system named is HCT-116. Kind of experiment: Antitumor activity against human HCT116 cells xenografted in BALB/c nude mouse assessed as tumor growth inhibition at 100 mg/kg, ip for 16 days. The settings on record: HCT-116, ip, 384 h, read-out: TGI. Format: functional.
Experiment [4] relates to HCT-116. Kind of experiment: Antitumor activity against human HCT116 cells xenografted in BALB/c nude mouse assessed as tumor growth inhibition at 50 mg/kg, ip for 16 days. To be noted: HCT-116, ip, 384 h, read-out: TGI. Format: functional. In general terms: A xenograft is tissue or cells of one species grown in another, often human tumour cells in immunodeficient mice.

For experiment [5], the species on record is Homo sapiens. Kind of experiment: Selectivity ratio of IC50 for human HDAC3 to IC50 for recombinant human full length HDAC6 expressed in baculovirus infected Sf9 insect cells.
For experiment [6], the species on record is Homo sapiens. The experiment is described as follows: Selectivity ratio of IC50 for recombinant human full length HDAC1 expressed in baculovirus infected Sf9 insect cells to IC50 for recombinant human full length HDAC6 expressed in baculovirus infected Sf9 insect cells.
Experiment [7] has as its target T1, Protein deacetylase HDAC6 (Homo sapiens, UniProt Q9UBN7).
T1 sequence (Q9UBN7 whole entry): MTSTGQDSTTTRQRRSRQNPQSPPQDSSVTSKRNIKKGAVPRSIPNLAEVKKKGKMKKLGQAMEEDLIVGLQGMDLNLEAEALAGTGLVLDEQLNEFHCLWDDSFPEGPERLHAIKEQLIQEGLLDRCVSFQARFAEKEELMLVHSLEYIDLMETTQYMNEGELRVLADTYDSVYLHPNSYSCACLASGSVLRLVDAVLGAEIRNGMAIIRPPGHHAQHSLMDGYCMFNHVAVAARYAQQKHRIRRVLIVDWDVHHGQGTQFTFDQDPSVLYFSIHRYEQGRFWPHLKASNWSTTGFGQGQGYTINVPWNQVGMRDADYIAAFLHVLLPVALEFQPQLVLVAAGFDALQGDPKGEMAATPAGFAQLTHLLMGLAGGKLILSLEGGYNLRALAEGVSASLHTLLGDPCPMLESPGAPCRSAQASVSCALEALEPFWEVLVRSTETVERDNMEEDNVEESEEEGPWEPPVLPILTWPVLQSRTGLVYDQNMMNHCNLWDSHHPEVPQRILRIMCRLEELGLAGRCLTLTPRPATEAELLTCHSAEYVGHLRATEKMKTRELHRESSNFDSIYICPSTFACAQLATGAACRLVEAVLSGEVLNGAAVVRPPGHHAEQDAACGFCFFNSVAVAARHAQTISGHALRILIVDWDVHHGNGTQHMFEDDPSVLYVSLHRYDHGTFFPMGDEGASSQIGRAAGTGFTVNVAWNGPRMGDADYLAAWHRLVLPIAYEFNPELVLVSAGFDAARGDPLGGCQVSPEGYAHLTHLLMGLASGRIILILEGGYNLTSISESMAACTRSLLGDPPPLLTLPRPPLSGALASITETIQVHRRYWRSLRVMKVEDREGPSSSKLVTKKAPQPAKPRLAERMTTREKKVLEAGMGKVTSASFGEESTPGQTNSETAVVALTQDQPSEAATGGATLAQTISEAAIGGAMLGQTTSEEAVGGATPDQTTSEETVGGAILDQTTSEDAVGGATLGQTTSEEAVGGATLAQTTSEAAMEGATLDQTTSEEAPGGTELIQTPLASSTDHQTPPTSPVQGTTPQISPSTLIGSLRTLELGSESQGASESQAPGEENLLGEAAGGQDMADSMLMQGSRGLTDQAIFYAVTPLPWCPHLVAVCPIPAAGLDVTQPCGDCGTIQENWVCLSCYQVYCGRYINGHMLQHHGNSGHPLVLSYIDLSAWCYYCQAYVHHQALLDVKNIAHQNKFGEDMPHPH
Kind of experiment: Inhibition of recombinant human full length HDAC6 expressed in baculovirus infected Sf9 insect cells using RHKKAC as substrate incubated for 5 to 10 mins followed by substrate addition measured after 2 hrs by fluorescence assay.

Experiment [8] is filed under the species Homo sapiens. Kind of experiment: Selectivity ratio of IC50 for human HDAC2 to IC50 for recombinant human full length HDAC6 expressed in baculovirus infected Sf9 insect cells.
The test system of experiment [9] is MC-38. The experiment is described as follows: Cytotoxicity against mouse Colon 38 cells after 5 days by hemocytometry. Type of experiment: functional, cell-based. The settings on record: MC-38, 120 h.
Experiment [10] concerns CT26. The experiment is described as follows: Cytotoxicity against mouse CT26 cells after 5 days by hemocytometry. Format: functional, cell-based. To be noted: CT26, 120 h.
For experiment [11], the system named is Mycobacterium tuberculosis. The experiment is described as follows: Antimycobacterial activity against Mycobacterium tuberculosis H37Rv. Type of experiment: functional.
Experiment [12] has as its system HeLa. Kind of experiment: Antiproliferative activity against human HeLa cells after 48 hrs by MTT assay. Format: functional, cell-based. In general terms: Tetrazolium assays rely on reduction of a dye to a coloured formazan, in cell work by metabolically active cells.
The subject of experiment [13] is MCF7. The experiment is described as follows: Antiproliferative activity against human MCF7 cells after 48 hrs by MTT assay. Format: functional, cell-based. To be noted: MCF7, 48 h.

SMILES strings stand for the structures. ≈ marks a conversion by molar mass, not a printed value.

As for `O=[N+]([O-])c1ccc(-c2cc(C3CC3)no2)cc1`, the MIC in [1] and in experiment [2] was 25 µg/mL (≈ 109 µM) each time.

`CCc1cc(-c2oncc2-c2ccc(OC)cc2)c(O)cc1OC`: the inhibition in vivo at 100 mg/kg in [3] was 70.3%. Moreover, the inhibition in vivo at 50 mg/kg in experiment [4] is 49.5%.

In the case of `CC(C)(C)OC(=O)Nc1cccc(-c2cc(C(=O)NCc3ccc(C(=O)NO)cc3)no2)c1`, the Ratio IC50 in experiment [5], in [6] and in [8] was over 500 each time. Also, in experiment [7], the IC50 is under 10 nM.

`O=C(Nc1ccc(Cl)cc1)c1ccno1`: the IC50 in experiment [9] and in [10] was 2.5 µg/mL (≈ 11.2 µM) throughout.

In experiment [11], `CCOC(=O)c1cc(/C=C/c2ccnc3ccccc23)on1` registered an MIC of 0.2 µM (≈ 0.0589 µg/mL).

Turning to `COc1ccc(-c2cc(-c3cccs3)on2)cc1OC`, the figures for the IC50 in [12] and in [13] were 39.2 µM and 19.5 µM, respectively.

With `CCCCCCC(=O)Nc1ccc(-c2cc(C(=O)NCc3ccc(C(=O)NO)cc3)no2)cc1`, the Ratio IC50 in experiment [5], in experiment [6] and in [8] was over 500 in each case. In [7], the IC50 was under 10 nM.

On to `CC(C)(C)OC(=O)Nc1ccc(-c2cc(C(=O)NCc3ccc(C(=O)NO)cc3)no2)cc1`, for which the Ratio IC50 in [5], in experiment [6] and in [8] was over 500 in each case. Moreover, in [7], the IC50 is under 10 nM.

On to `CCCCCCC(=O)Nc1cccc(-c2cc(C(=O)NCc3ccc(C(=O)NO)cc3)no2)c1`, for which the Ratio IC50 in [5], in [6] and in [8] was over 500 in each case. Further, the IC50 in experiment [7] was under 10 nM.

In general, MIC refers to the lowest concentration that inhibits growth of the organism. A low value points to inhibition by little substance. In general, IC50 refers to the point on the concentration scale where inhibition reaches its midpoint.
